# What was measured:
# [1] = tested on: Desulfovibrio vulgaris Hildenborough (DvH); assay: Carbon steel coupon weight loss analysis in DvH cultures; format: cell-based
# Procedure: (§1) Carbon steel coupons were incubated in the presence of 0 and 2 mM indole, with and without an inoculum of DvH.
# (§2) The metal loss of the carbon steel coupons was measured. FIG. 1 is a bar graph comparing corrosion as measured in coupon weight loss under the compound (indole) and SRB (DvH) tested.
# (§3) Steel coupons were incubated in cultures of DvH for three days with and without indole and then the coupons were measured to determine the amount of metal loss due to corrosion. […] The error bars represent the standard error of the mean from 2 replicates.
# The wild-type D. vulgaris Hildenborough (DvH) was obtained from Judy Wall at the University of Missouri and Adam Deutchbauer at the Lawrence Berkeley National Laboratory. Freezer stocks of DvH containing 10% glycerol were used to inoculate overnight cultures. The growth media (L30S30B2) contained 30 mM lactate, 30 mM sulfate, 8 mM MgCl2, 20 mM NH4Cl, 2.2 mM phosphate buffer, 0.6 mM CaCl2, 24 mM NaCO3, 0.02% resazurin, 0.06 mM FeCl2, trace elements and Thauer's vitamins (Lee et al., “Indole as an intercellular signal in microbial communities,” 2010, pp. 426-444) with pH adjusted to 7.2. Media was bubbled with 15% CO2 balance N2 and sodium dithionite was added immediately before inoculation to a final concentration of […]. Media containing 0-4 mM indole was made by anaerobically mixing varied volumes of L30S30B2 and L30S30B2 supplemented with 4 mM indole (Sigma-Aldrich, 13408).
# (§4) Rectangular X52 carbon steel coupons were polished on 600 grit sand paper and weighed prior to the experiment. 60 ml of L30S30B2 media containing 0-2 mM indole was anaerobically transferred into each autoclaved serum bottle with 1 coupon hung on plastic fishing wire. 1 ml of a DvH overnight culture was inoculated into each bottle and incubated at 30° C. with gentle shaking for 3 days. After the incubation the coupons were descaled with Clarke's solution (tin choloride and antimony oxide in concentrated hydrochloric acid), rinsed with water, dried under nitrogen gas, and weighed again. The metal weight loss after exposure to DvH was then calculated.
# [2] = Carbon steel coupon weight loss in a sterile environment without DvH inoculation; settings: 2 mM indole, carbon steel coupons, FIG. 1
# Procedure: as §1, §2, §4
# [3] = tested on: Desulfovibrio vulgaris Hildenborough (DvH); assay: DvH metabolism by ion chromatography (lactate, sulfate, acetate); format: cell-based; settings: 0.5-2 mM indole, FIG. 2B, 2 replicates
# Procedure: as §3
# The wild-type D. vulgaris Hildenborough (DvH) was obtained from Judy Wall at the University of Missouri and Adam Deutchbauer at the Lawrence Berkeley National Laboratory. Freezer stocks of DvH containing 10% glycerol were used to inoculate overnight cultures. The growth media (L30S30B2) contained 30 mM lactate, 30 mM sulfate, 8 mM MgCl2, 20 mM NH4Cl, 2.2 mM phosphate buffer, 0.6 mM CaCl2, 24 mM NaCO3, 0.02% resazurin, 0.06 mM FeCl2, trace elements and Thauer's vitamins (Lee et al., “Indole as an intercellular signal in microbial communities,” 2010, pp. 426-444) with pH adjusted to 7.2. […]
# Ion Chromatography (IC)—One milliliter of cultures were extracted at the beginning and the end of the experiment, centrifuged at 14000 rpm for 2 min, filtered through 0.2 μm cellulose acetate filters, and kept at −20° C. until further IC analysis. Anions of lactate, sulfate, and acetate were quantified using suppressed conductivity on a Dionex ICS-5000 Reagent-Free HPIC System with a Dionex IonPac AS 11-HC column (0.4 mm×250 mm, Thermo Fisher, Massachusetts, USA). […]
smiles,measurement,setting,value
c1ccc2[nH]ccc2c1 [indole],reduction of corrosion (coupon weight loss) compared to the no indole treatment,"[1]; 2 mM indole, carbon steel coupons, in the presence of DvH (MIC), FIG. 1",2 fold
same,metal loss of coupons incubated in the absence of indole relative to coupons in the presence of indole,"[1]; 0.5-2 mM indole, steel coupons in DvH cultures, three days, FIG. 2A",~2 fold
same,corrosion of metal coupons,"[1]; 0.5 to 2 mM indole, DvH cultures, three days",little to no corrosion
same,reduction in coupon weight loss in sterile environment,[2],not replicated
same,"metabolism of DvH (consumption of lactate and sulfate, production of acetate)",[3],not significantly affected

# From US20160360749A1, “METHOD FOR […] […]” (ExxonMobil Research and Engineering Company, priority 2015, published 2016)
